IC50 data for 13 compounds are collected here from patent US20240254117A1, “PYRIMIDO-HETEROCYCLIC COMPOUNDS, AND PREPARATION METHOD THEREFOR AND USE THEREOF” (SHANGHAI RINGENE BIOPHARMA CO., LTD., priority 2020, published 2024).

For the experiment, the system named is pERK. Put plainly: p-ERK level in PC9 cells (AlphaLISA SureFire Ultra p-ERK1/2). It is filed as cell-based. Conditions: Homo sapiens, read-out: SOS1 pERK IC50. How it is done:
PC9 cells were seeded in 384-well cell culture plate (40 μL/well) according to a certain concentration and placed in a cell culture incubator with 37° C. and 5% CO2 overnight. On the next day, the plate was added with serially diluted test compounds (5 concentrations, 3-fold dilution, the highest concentration was 10 uM) for 1 hour, and then the lysate containing protease and phosphatase inhibitor was added to lyse the cells-extracted proteins, cellular pERK levels were measured using the AlphaLISASureFire Ultra p ERK1/2 assay kit (PerkinElmer). The standard AlphaLISA settings on the Envision plate reader (PerkinElmer) was used to read the signal. Raw data were analyzed in Excel (Microsoft) and Prism (GraphPad). The signal was plotted against the common logarithm of compound concentration and IC50 was calculated by fitting a four parameter non-linear regression curve.
(Alpha assays give light when donor and acceptor beads are brought close together.)

Setting [1] is: PC-9, PC9 cells, 1 hour compound treatment.

Read-outs that look alike come from different tables or passages of the source.

Turning to `COC1(c2cc3c(N[C@H](C)c4cc(N)cc(C(F)(F)F)c4)nc(C)nc3n3ccnc23)CCOCC1` [Example 75], the concentration for half-maximal inhibition (IC50) – broadly, the midpoint of a concentration-inhibition curve – under setting [1] is < 1000 nM.
On to `COC1(c2cc3c(N[C@H](C)c4cc(N)cc(C(F)(F)F)c4)nc(C)nc3n3ccnc23)CCN(C(C)=O)CC1` [Example 76], for which the IC50 under setting [1] was < 1000 nM.
For the compound `COC1(c2cc3c(N[C@H](C)c4cc(N)cc(C(F)(F)F)c4)nc(C)nc3n3ccnc23)CCS(=O)(=O)CC1` [Example 77], the IC50 under setting [1] is < 1000 nM.
Still for that read-out and setting: the value for `Cc1nc(N[C@H](C)c2cc(N)cc(C(F)(F)F)c2)c2cc(C3(C#N)CCS(=O)(=O)CC3)c3nccn3c2n1` [Example 78] was < 1000 nM; that for `COC1(c2cc3c(N[C@H](C)c4cccc(C(F)(F)F)c4C)nc(C)nc3n3ccnc23)CCOCC1` [Example 79] was < 1000 nM.
Regarding `Cc1nc(N[C@H](C)c2cccc(C(F)(F)F)c2C)c2cc(C3(C#N)CCS(=O)(=O)CC3)c3nccn3c2n1` [Example 80], the 50% inhibitory concentration (IC50) under setting [1] was < 1000 nM.
Same read-out and setting: the same measure for `COC1(c2cc3c(N[C@H](C)c4cccc(C(F)(F)F)c4C)nc(C)nc3n3ccnc23)CCN(C(C)C)CC1` [Example 81]: < 1000 nM.
For the compound `CC(=O)N1CCC(O)(c2cc3c(N[C@H](C)c4cc(N)cc(C(F)(F)F)c4)nc(C)nc3n3ccnc23)CC1` [Example 85, (R)-1-(4-(4-((1-(3-amino-5-(trifluoromethyl)phenyl)ethyl)amino)-2-methylimidazole [1′,2′:1,6]pyrido [2,3-d]pyrimidin-6-yl)-4-hydroxypiperidin-1-yl) ethyl-1-one], for the setting “PC-9, 1 h”, the 50% inhibitory concentration (IC50) was < 1000 nM.
Regarding `COC1(c2cc3c(N[C@H](C)c4cc(N)cc(C(F)(F)F)c4)nc(C)nc3n3ccnc23)CCN(C(=O)C(C)C)CC1` [Example 89], the IC50 under setting [1] is < 1000 nM.
Take `Cc1nc(N[C@H](C)c2cc(N)cc(C(F)(F)F)c2)c2cc(C3(C#N)CCN(C(=O)C(C)C)CC3)c3nccn3c2n1` [Example 90]: under setting [1], the IC50 was < 1000 nM.
Take `COC1(c2cc3c(N[C@H](C)c4cc(N)cc(C(F)(F)F)c4)nc(C)nc3n3ccnc23)CC2CCC(C1)N2C(=O)C(C)C` (stereo partly shown) [Example 91]: the IC50 (PC-9, 1 h) is < 1000 nM.
Still for that read-out and setting: the value for `COC1(c2cc3c(N[C@H](C)c4cc(N)cc(C(F)(F)F)c4)nc(C)nc3n3ccnc23)CC2CCC(C1)N2C` (stereo partly shown) [Example 92] was < 1000 nM.
With `COC1(c2cc3c(N[C@H](C)c4cc(N)cc(C(F)(F)F)c4)nc(C)nc3n3ccnc23)CC2CCC(C1)N2C(C)C` (stereo partly shown) [Example 93], the IC50 (PC-9, 1 h) is < 1000 nM.
